Experimental data published in patent US10300155B2, “Alpha-synuclein ligands” (Washington University, priority 2015, dated 2019).
Several values for one entry are separate records, joined by “and”; a condition that tells them apart may be missing. Identical values can stand only once.

Experiment: Biodistribution in male Balb/C mice
Format: in vivo
Conditions: for Biodistribution: Blood / Biodistribution: Brain / Biodistribution: Fat / Biodistribution: Heart / Biodistribution: Kidney / Biodistribution: Liver / Biodistribution: Lung / Biodistribution: Muscle / Biodistribution: Pancreas / Biodistribution: Spleen / Biodistribution: Bone: tail vein, mean ± SD, n = 4; for crossing of the blood brain barrier: judged from brain uptake at 5 min
Description: For the biodistribution studies, 100˜130 μCi of [^11C] TZ-20-35 in ˜100 μL of 10% ethanol/saline solution (v/v) was injected via the tail vein into mature male Balb/C mice (19-24 g) under anesthesia (2.5% isoflurane in oxygen at a flow rate of 1 mL/min). A group of at least four […] were used for each time point. […] The whole brain was quickly harvested. At the same time, samples of blood, heart, lung, liver, spleen, pancreas, kidney, muscle, fat, and tail were dissected. All the tissue samples were collected in tared tubes and counted in an automated gamma counter (Beckman Gamma 8000 well counter) with standards, prepared by diluting the injectate. The counted tissues were then weighed, and the % ID/g was calculated (Table 4).

SMILES: COc1ccc(NC(=O)c2ccc(/C=C/c3ccncc3)cc2)cc1 [[^11C]TZ-20-83]
- brain uptake and washout (assessment in words) (5 to 60 min post injection): brain uptake and washout aren't significant
- Biodistribution: Blood (5 min post injection): 1.93 ± 0.15 % ID/g
- Biodistribution: Brain (5 min post injection): 1.93 % ID/g and 1.93 ± 0.29 % ID/g
- Biodistribution: Fat (5 min post injection): 1.94 ± 0.20 % ID/g
- Biodistribution: Heart (5 min post injection): 2.31 ± 0.37 % ID/g
- Biodistribution: Kidney (5 min post injection): 17.55 ± 2.61 % ID/g
- Biodistribution: Liver (5 min post injection): 37.98 ± 3.78 % ID/g
- Biodistribution: Lung (5 min post injection): 11.22 ± 0.59 % ID/g
- Biodistribution: Muscle (5 min post injection): 1.18 ± 0.24 % ID/g
- Biodistribution: Pancreas (5 min post injection): 3.09 ± 0.39 % ID/g
- Biodistribution: Spleen (5 min post injection): 18.77 ± 3.38 % ID/g
- organ recovery (30 min post injection): 58%
- Biodistribution: Blood (30 min post injection): 1.59 ± 0.42 % ID/g
- Biodistribution: Brain (30 min post injection): 1.63 % ID/g and 1.63 ± 0.33 % ID/g
- Biodistribution: Fat (30 min post injection): 1.73 ± 0.36 % ID/g
- Biodistribution: Heart (30 min post injection): 1.79 ± 0.35 % ID/g
- Biodistribution: Kidney (30 min post injection): 9.98 ± 1.76 % ID/g
- Biodistribution: Liver (30 min post injection): 17.94 ± 3.86 % ID/g
- Biodistribution: Lung (30 min post injection): 4.10 ± 0.96 % ID/g
- Biodistribution: Muscle (30 min post injection): 1.17 ± 0.23 % ID/g
- Biodistribution: Pancreas (30 min post injection): 5.10 ± 1.09 % ID/g
- Biodistribution: Spleen (30 min post injection): 3.49 ± 0.84 % ID/g
- organ recovery (60 min post injection): 38%
- Biodistribution: Blood (60 min post injection): 1.56 ± 0.12 % ID/g
- Biodistribution: Brain (60 min post injection): 1.25 % ID/g and 1.25 ± 0.11 % ID/g
- Biodistribution: Fat (60 min post injection): 1.05 ± 0.22 % ID/g
- Biodistribution: Heart (60 min post injection): 1.48 ± 0.05 % ID/g
- Biodistribution: Kidney (60 min post injection): 5.82 ± 0.47 % ID/g
- Biodistribution: Liver (60 min post injection): 13.36 ± 1.75 % ID/g
- Biodistribution: Lung (60 min post injection): 2.93 ± 0.22 % ID/g
- Biodistribution: Muscle (60 min post injection): 0.92 ± 0.14 % ID/g
- Biodistribution: Pancreas (60 min post injection): 6.96 ± 0.51 % ID/g
- Biodistribution: Spleen (60 min post injection): 3.21 ± 0.76 % ID/g

SMILES: O=C(Nc1ccc(OCC[18F])cc1)c1ccc(/C=C/c2ccncc2)cc1 [[^18F]TZ-23-88]
- Biodistribution: Blood (5 min post injection): 2.50 ± 0.13 % ID/g
- Biodistribution: Bone (5 min post injection): 4.07 % ID/g and 4.07 ± 0.50 % ID/g
- Biodistribution: Brain (5 min post injection): 4.59 % ID/g and 4.69 ± 0.70 % ID/g
- Biodistribution: Fat (5 min post injection): 2.43 ± 0.42 % ID/g
- Biodistribution: Heart (5 min post injection): 4.82 ± 0.47 % ID/g
- Biodistribution: Kidney (5 min post injection): 35.67 ± 1.48 % ID/g
- Biodistribution: Liver (5 min post injection): 16.30 ± 3.53 % ID/g
- Biodistribution: Lung (5 min post injection): 8.50 ± 0.60 % ID/g
- Biodistribution: Muscle (5 min post injection): 2.60 ± 0.19 % ID/g
- Biodistribution: Pancreas (5 min post injection): 4.91 ± 0.68 % ID/g
- Biodistribution: Spleen (5 min post injection): 3.12 ± 0.12 % ID/g
- Biodistribution: Blood (30 min post injection): 2.30 ± 0.05 % ID/g
- Biodistribution: Bone (30 min post injection): 28.50 % ID/g and 28.50 ± 2.81 % ID/g
- Biodistribution: Brain (30 min post injection): 4.07 % ID/g and 4.07 ± 0.21 % ID/g
- Biodistribution: Fat (30 min post injection): 1.70 ± 0.17 % ID/g
- Biodistribution: Heart (30 min post injection): 2.23 ± 0.06 % ID/g
- Biodistribution: Kidney (30 min post injection): 15.72 ± 1.06 % ID/g
- Biodistribution: Liver (30 min post injection): 19.56 ± 0.97 % ID/g
- Biodistribution: Lung (30 min post injection): 2.57 ± 0.15 % ID/g
- Biodistribution: Muscle (30 min post injection): 1.35 ± 0.04 % ID/g
- Biodistribution: Pancreas (30 min post injection): 3.02 ± 0.19 % ID/g
- Biodistribution: Spleen (30 min post injection): 1.59 ± 0.08 % ID/g
- Biodistribution: Blood (60 min post injection): 1.28 ± 0.06 % ID/g
- Biodistribution: Bone (60 min post injection): 42.68 % ID/g and 42.68 ± 1.69 % ID/g
- Biodistribution: Brain (60 min post injection): 3.21 % ID/g and 3.21 ± 0.14 % ID/g
- Biodistribution: Fat (60 min post injection): 0.69 ± 0.10 % ID/g
- Biodistribution: Heart (60 min post injection): 1.23 ± 0.05 % ID/g
- Biodistribution: Kidney (60 min post injection): 5.59 ± 0.29 % ID/g
- Biodistribution: Liver (60 min post injection): 10.71 ± 0.80 % ID/g
- Biodistribution: Lung (60 min post injection): 1.31 ± 0.07 % ID/g
- Biodistribution: Muscle (60 min post injection): 0.75 ± 0.07 % ID/g
- Biodistribution: Pancreas (60 min post injection): 1.84 ± 0.33 % ID/g
- Biodistribution: Spleen (60 min post injection): 0.90 ± 0.07 % ID/g
- Biodistribution: Blood (120 min post injection): 0.70 ± 0.05 % ID/g
- Biodistribution: Bone (120 min post injection): 49.39 % ID/g and 49.39 ± 8.21 % ID/g
- Biodistribution: Brain (120 min post injection): 2.37 % ID/g and 2.37 ± 0.14 % ID/g
- Biodistribution: Fat (120 min post injection): 0.23 ± 0.12 % ID/g
- Biodistribution: Heart (120 min post injection): 0.71 ± 0.12 % ID/g
- Biodistribution: Kidney (120 min post injection): 1.94 ± 0.29 % ID/g
- Biodistribution: Liver (120 min post injection): 5.59 ± 0.39 % ID/g
- Biodistribution: Lung (120 min post injection): 0.71 ± 0.09 % ID/g
- Biodistribution: Muscle (120 min post injection): 0.55 ± 0.21 % ID/g
- Biodistribution: Pancreas (120 min post injection): 0.98 ± 0.10 % ID/g
- Biodistribution: Spleen (120 min post injection): 0.47 ± 0.04 % ID/g
- crossing of the blood brain barrier: can cross the blood brain barrier and enter the brain
- defluorination (judged from increasing bone uptake in the mice): strong defluorination

SMILES: O=C(Nc1ccc(OCCC[18F])cc1)c1ccc(/C=C/c2ccncc2)cc1 [[^18F]TZ-23-92]
- Biodistribution: Blood (5 min post injection): 2.40 ± 0.39 % ID/g
- Biodistribution: Bone (5 min post injection): 3.31 % ID/g and 3.31 ± 0.74 % ID/g
- Biodistribution: Brain (5 min post injection): 1.51 % ID/g and 1.52 ± 0.18 % ID/g
- Biodistribution: Fat (5 min post injection): 1.79 ± 0.55 % ID/g
- Biodistribution: Heart (5 min post injection): 2.93 ± 0.34 % ID/g
- Biodistribution: Kidney (5 min post injection): 11.17 ± 0.41 % ID/g
- Biodistribution: Liver (5 min post injection): 52.44 ± 3.84 % ID/g
- Biodistribution: Lung (5 min post injection): 7.70 ± 0.85 % ID/g
- Biodistribution: Muscle (5 min post injection): 1.47 ± 0.16 % ID/g
- Biodistribution: Pancreas (5 min post injection): 2.03 ± 0.19 % ID/g
- Biodistribution: Spleen (5 min post injection): 23.73 ± 4.54 % ID/g
- Biodistribution: Blood (30 min post injection): 2.42 ± 0.19 % ID/g
- Biodistribution: Bone (30 min post injection): 39.47 % ID/g and 39.48 ± 10.28 % ID/g
- Biodistribution: Brain (30 min post injection): 1.55 % ID/g and 1.56 ± 0.08 % ID/g
- Biodistribution: Fat (30 min post injection): 1.34 ± 0.30 % ID/g
- Biodistribution: Heart (30 min post injection): 2.19 ± 0.19 % ID/g
- Biodistribution: Kidney (30 min post injection): 9.10 ± 0.34 % ID/g
- Biodistribution: Liver (30 min post injection): 14.47 ± 1.13 % ID/g
- Biodistribution: Lung (30 min post injection): 2.30 ± 0.25 % ID/g
- Biodistribution: Muscle (30 min post injection): 1.30 ± 0.16 % ID/g
- Biodistribution: Pancreas (30 min post injection): 1.87 ± 0.23 % ID/g
- Biodistribution: Spleen (30 min post injection): 1.69 ± 0.15 % ID/g
- Biodistribution: Blood (60 min post injection): 0.84 ± 0.05 % ID/g
- Biodistribution: Bone (60 min post injection): 68.78 % ID/g and 68.78 ± 6.75 % ID/g
- Biodistribution: Brain (60 min post injection): 1.46 % ID/g and 1.46 ± 0.16 % ID/g
- Biodistribution: Fat (60 min post injection): 0.58 ± 0.13 % ID/g
- Biodistribution: Heart (60 min post injection): 0.90 ± 0.07 % ID/g
- Biodistribution: Kidney (60 min post injection): 3.87 ± 0.36 % ID/g
- Biodistribution: Liver (60 min post injection): 7.00 ± 0.33 % ID/g
- Biodistribution: Lung (60 min post injection): 0.83 ± 0.05 % ID/g
- Biodistribution: Muscle (60 min post injection): 0.55 ± 0.06 % ID/g
- Biodistribution: Pancreas (60 min post injection): 0.98 ± 0.08 % ID/g
- Biodistribution: Spleen (60 min post injection): 0.61 ± 0.04 % ID/g
- Biodistribution: Blood (120 min post injection): 0.32 ± 0.02 % ID/g
- Biodistribution: Bone (120 min post injection): 70.20 % ID/g and 70.20 ± 15.04 % ID/g
- Biodistribution: Brain (120 min post injection): 1.0 % ID/g and 1.00 ± 0.11 % ID/g
- Biodistribution: Fat (120 min post injection): 0.29 ± 0.10 % ID/g
- Biodistribution: Heart (120 min post injection): 0.31 ± 0.02 % ID/g
- Biodistribution: Kidney (120 min post injection): 1.67 ± 0.23 % ID/g
- Biodistribution: Liver (120 min post injection): 3.50 ± 0.48 % ID/g
- Biodistribution: Lung (120 min post injection): 0.36 ± 0.03 % ID/g
- Biodistribution: Muscle (120 min post injection): 0.33 ± 0.26 % ID/g
- Biodistribution: Pancreas (120 min post injection): 0.61 ± 0.13 % ID/g
- Biodistribution: Spleen (120 min post injection): 0.24 ± 0.01 % ID/g
- crossing of the blood brain barrier: can cross BBB and enter the brain
